# From article PMC12028158, “Synthesis and In Vitro Evaluation of the Anticancer Effect of Novel Phosphonium Vindoline Derivatives” (International Journal of Molecular Sciences, 2025)
# Columns and labels:
# Assay type in all cases: cell-based
# MOLT-4 = experiment: NCI60 one-dose screen; details: Homo sapiens, MOLT-4, read-out: Growth percent
# LOX IMVI = experiment: NCI60 five-dose screen; details: Homo sapiens
# Leukemia panel = experiment: NCI60 five-dose screen, panel mean; details: Homo sapiens, read-out: GI50 Mean
# SF-268 = experiment: NCI60 one-dose screen; details: Homo sapiens, SF-268, read-out: Growth percent
# SK-MEL-28 [1] = experiment: NCI60 one-dose screen; details: Homo sapiens, SK-MEL-28, read-out: Growth percent
# COLO 205 = experiment: NCI60 one-dose screen; details: Homo sapiens, COLO 205, read-out: Growth percent
# MALME-3M [2] = experiment: NCI60 five-dose screen; details: Homo sapiens, Malme-3M
# EKVX = experiment: NCI60 five-dose screen; details: Homo sapiens
# SF-295 = experiment: NCI60 one-dose screen; details: Homo sapiens, SF-295, read-out: Growth percent
# IGROV1 = experiment: NCI60 one-dose screen; details: Homo sapiens, IGROV-1, read-out: Growth percent
# SNB-19 [3] = experiment: NCI60 five-dose screen; details: Homo sapiens, SNB-19
# OVCAR-8 [4] = experiment: NCI60 five-dose screen; details: Homo sapiens, OVCAR-8
# NCI-H23 [5] = experiment: NCI60 five-dose screen; details: Homo sapiens, NCI-H23
# Renal Cancer panel = experiment: NCI60 five-dose screen, panel mean; details: Homo sapiens, read-out: GI50 Mean
# SF-539 = experiment: NCI60 five-dose screen; details: Homo sapiens, SF-539
# SK-MEL-28 [6] = experiment: NCI60 five-dose screen; details: Homo sapiens, SK-MEL-28
# SK-MEL-5 [7] = experiment: NCI60 one-dose screen; details: Homo sapiens, SK-MEL-5, read-out: Growth percent
# SNB-19 [8] = experiment: NCI60 one-dose screen; details: Homo sapiens, SNB-19, read-out: Growth percent
# HCT-15 = experiment: NCI60 five-dose screen; details: Homo sapiens, HCT-15
# SK-MEL-2 = experiment: NCI60 one-dose screen; details: Homo sapiens, SK-MEL-2, read-out: Growth percent
# M14 = experiment: NCI60 one-dose screen; details: Homo sapiens, M14, read-out: Growth percent
# SR = experiment: NCI60 one-dose screen; details: Homo sapiens, read-out: Growth percent
# NCI-H23 [9] = experiment: NCI60 one-dose screen; details: Homo sapiens, NCI-H23, read-out: Growth percent
# NCI-H460 = experiment: NCI60 one-dose screen; details: Homo sapiens, NCI-H460, read-out: Growth percent
# OVCAR-8 [10] = experiment: NCI60 one-dose screen; details: Homo sapiens, OVCAR-8, read-out: Growth percent
# NCI-H322M = experiment: NCI60 one-dose screen; details: Homo sapiens, read-out: Growth percent
# MDA-MB-468 = experiment: NCI60 five-dose screen; details: Homo sapiens, MDA-MB-468
# SN12C = experiment: NCI60 one-dose screen; details: Homo sapiens, read-out: Growth percent
# 786-0 = experiment: NCI60 one-dose screen; details: Homo sapiens, 786-0, read-out: Growth percent
# RPMI-8226 = experiment: NCI60 one-dose screen; details: Homo sapiens, RPMI-8226, read-out: Growth percent
# HOP-92 = experiment: NCI60 one-dose screen; details: Homo sapiens, HOP-92, read-out: Growth percent
# Ovarian Cancer panel = experiment: NCI60 five-dose screen, panel mean; details: Homo sapiens, read-out: GI50 Mean
# MALME-3M [11] = experiment: NCI60 one-dose screen; details: Homo sapiens, Malme-3M, read-out: Growth percent
# SK-MEL-5 [12] = experiment: NCI60 five-dose screen; details: Homo sapiens, SK-MEL-5
# UACC-62 = experiment: NCI60 one-dose screen; details: Homo sapiens, UACC-62, read-out: Growth percent
# A549/ATCC = experiment: NCI60 five-dose screen; details: Homo sapiens, A549
# KM12 = experiment: NCI60 five-dose screen; details: Homo sapiens, KM12
# UACC-257 = experiment: NCI60 five-dose screen; details: Homo sapiens, UACC-257
# MCF7 [13] = experiment: NCI60 one-dose screen; details: Homo sapiens, MCF7, read-out: Growth percent
# HS 578T = experiment: NCI60 one-dose screen; details: Homo sapiens, Hs-578T, read-out: Growth percent
# HOP-62 = experiment: NCI60 five-dose screen; details: Homo sapiens, HOP-62
# MDA-MB-435 = experiment: NCI60 one-dose screen; details: Homo sapiens, MDA-MB-435, read-out: Growth percent
# OVCAR-3 = experiment: NCI60 five-dose screen; details: Homo sapiens, OVCAR-3
# T-47D = experiment: NCI60 five-dose screen; details: Homo sapiens, T47D
# MCF7 [14] = experiment: NCI60 five-dose screen; details: Homo sapiens, MCF7
smiles,measurement,setting,value
"CC[C@]12C=CCN3CC[C@@]4(c5ccc(OC)cc5N(C)[C@H]4[C@@](O)(C(=O)OC)[C@@H]1OC(=O)CCCC[P+](c1ccccc1)(c1ccccc1)c1ccccc1)[C@@H]32 [compound 4, reference compound]",activity at 10 µM,MOLT-4,5.66%
same,GI50,LOX IMVI,1170 nM
same,GI50,Leukemia panel,600 nM
same,activity at 10 µM,SF-268,26.2%
same,activity at 10 µM,SK-MEL-28 [1],12.5%
same,activity at 10 µM,COLO 205,-93.7%
same,GI50,MALME-3M [2],273 nM
same,GI50,EKVX,586 nM
same,activity at 10 µM,SF-295,58.1%
same,activity at 10 µM,IGROV1,-36.4%
same,GI50,SNB-19 [3],397 nM
same,GI50,OVCAR-8 [4],1740 nM
same,GI50,NCI-H23 [5],1220 nM
same,GI50,Renal Cancer panel,4870 nM
same,GI50,SF-539,1300 nM
same,GI50,SK-MEL-28 [6],532 nM
same,activity at 10 µM,SK-MEL-5 [7],-72.9%
same,activity at 10 µM,SNB-19 [8],12.7%
same,GI50,HCT-15,18600 nM
same,activity at 10 µM,SK-MEL-2,-41.6%
same,activity at 10 µM,M14,29.4%
same,activity at 10 µM,SR,17.9%
same,activity at 10 µM,NCI-H23 [9],6.4%
same,activity at 10 µM,NCI-H460,18.4%
same,activity at 10 µM,OVCAR-8 [10],18.6%
same,activity at 10 µM,NCI-H322M,47%
same,GI50,MDA-MB-468,170 nM
same,activity at 10 µM,SN12C,4.56%
same,activity at 10 µM,786-0,57.2%
same,activity at 10 µM,RPMI-8226,15.4%
same,activity at 10 µM,HOP-92,-30%
same,GI50,Ovarian Cancer panel,15100 nM
same,activity at 10 µM,MALME-3M [11],-35.8%
same,GI50,SK-MEL-5 [12],1710 nM
same,activity at 10 µM,UACC-62,-6.54%
same,GI50,A549/ATCC,1020 nM
same,GI50,KM12,442 nM
same,GI50,UACC-257,215 nM
same,activity at 10 µM,MCF7 [13],4.69%
same,activity at 10 µM,HS 578T,9.79%
same,GI50,HOP-62,2600 nM
same,activity at 10 µM,MDA-MB-435,-19.7%
same,GI50,OVCAR-3,398 nM
same,GI50,T-47D,303 nM
same,GI50,MCF7 [14],322 nM
